Test results taken from paper PMC6934184, “Selective DNA-PKcs inhibition extends the therapeutic index of localized radiotherapy and chemotherapy” (The Journal of Clinical Investigation, 2019).

Target: T1, ACVR1B (ALK4) (Homo sapiens, UniProt P36896)
T1 construct: purchased Thermo Fisher Scientific (Life Technologies) SelectScreen
Assay: SelectScreen Z'LYTE
Format: biochemical
How it was run: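 Compound tested in SelectScreen activity assays, Z'LYTE for CSF1R, CDK1/cyclin B and MAP2K6 and Adapta for CAMK1. ATP for CAMK1 was listed as 10, and Km app was used for CSF1R. Results are expressed in percent.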

T1 sequence (P36896 24-505): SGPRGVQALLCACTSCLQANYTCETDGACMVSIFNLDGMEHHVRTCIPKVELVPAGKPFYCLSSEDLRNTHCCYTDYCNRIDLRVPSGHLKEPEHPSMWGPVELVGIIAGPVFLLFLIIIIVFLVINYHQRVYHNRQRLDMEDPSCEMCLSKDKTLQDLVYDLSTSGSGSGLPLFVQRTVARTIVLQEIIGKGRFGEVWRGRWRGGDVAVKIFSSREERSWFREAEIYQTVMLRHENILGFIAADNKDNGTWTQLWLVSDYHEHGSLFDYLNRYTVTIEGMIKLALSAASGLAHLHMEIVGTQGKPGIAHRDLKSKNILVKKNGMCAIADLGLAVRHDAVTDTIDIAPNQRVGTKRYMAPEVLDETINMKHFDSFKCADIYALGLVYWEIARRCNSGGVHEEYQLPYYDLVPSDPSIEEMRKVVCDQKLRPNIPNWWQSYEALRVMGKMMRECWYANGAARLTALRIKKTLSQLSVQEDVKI

## CN(C(=O)CN1CCOCC1)c1ccc2sc3c(-c4cccc5c(=O)cc(N6CC7CCC(C6)O7)oc45)cccc3c2c1 [NU5455]
  inhibition at 1 µM: 2%
